For one experiment, the target named is Cat L (UniProt P07711). Briefly: Cathepsin enzyme inhibition assay (fluorogenic peptide substrate Z-Val-Val-Arg-AMC), Cathepsin L. Type of experiment: biochemical, human and mouse. The settings on record: enzyme 1 nM, substrate 20 μM, pH 6.5; read-out: CatL IC50. An outline of the steps:
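Cathepsin L at 1 nM was mixed with compound, then started with 20 μM Z-Val-Val-Arg-AMC in pH 6.5 potassium phosphate with EDTA, Triton X-100 and 5 mM DTT. AMC fluorescence (ex 360/em 465 nm) was followed over 20 min. IC50 is given in μM.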

The target of another experiment is Cathepsin S (UniProt P25774). Briefly: Cathepsin enzyme inhibition assay (fluorogenic peptide substrate Z-Val-Val-Arg-AMC), Cathepsin S. Type of experiment: biochemical, human and mouse. To be noted: enzyme 1 nM, substrate 20 μM, pH 6.5; read-out: CatS IC50. The essentials:
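Human or mouse cathepsin S (1 nM) was run in 100 mM potassium phosphate pH 6.5 with 5 mM EDTA, 0.001% Triton X-100 and 5 mM DTT. The rise in AMC fluorescence from cleavage was measured, and IC50 values were calculated by standard methods and expressed in μM.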

Where only a bound is given, the exact number is not on record here.

For `N#CC1(NC(=O)[C@@H]2C[C@@H](S(=O)(=O)c3ccc(OCC(F)(F)F)cc3C(F)(F)F)CN2c2nnc(C(F)(F)F)s2)CC1` [Example 366, (2S,4R)-4-[4-(2,2,2-Trifluoro-ethoxy)-2-trifluoromethyl-benzenesulfonyl]-1-(5-trifluoromethyl-[1,3,4]thiadiazol-2-yl)-pyrrolidine-2-carboxylic acid (1-cyano-cyclopropyl)-amide], the IC50 at Cat L was at least 25000 nM; on Cathepsin S, 0.327 nM.
`N#CC1(NC(=O)C2CC(S(=O)(=O)c3ccccc3C(F)(F)F)CN2c2cccc(OC(F)(F)F)c2)CC1` (centres unmarked) [Example 367, 1-(3-Trifluoromethoxy-phenyl)-4-(2-trifluoromethyl-benzenesulfonyl)-pyrrolidine-2-carboxylic acid (1-cyano-cyclopropyl)-amide]: the IC50 on Cat L was at least 25000 nM; on Cathepsin S, 1.57 nM.
Regarding `N#CC1(NC(=O)[C@@H]2C[C@@H](S(=O)(=O)c3ccc(F)cc3Cl)CN2C(=O)C2(c3ccc(Cl)nc3)CC2)CC1` [Example 368, (2S,4R)-4-(2-Chloro-4-fluoro-benzenesulfonyl)-1-[1-(6-chloro-pyridin-3-yl)-cyclopropanecarbonyl]-pyrrolidine-2-carboxylic acid (1-cyano-cyclopropyl)-amide], the IC50 on Cat L is 267 nM; at Cathepsin S, 0.21 nM.
For `CN1CCN(c2ccc(S(=O)(=O)[C@@H]3C[C@@H](C(=O)NC4(C#N)CC4)N(C(=O)C4(c5ccc(Cl)nc5)CC4)C3)c(Cl)c2)CC1` [Example 369, (2S,4R)-4-[2-Chloro-4-(4-methyl-piperazin-1-yl)-benzenesulfonyl]-1-[1-(6-chloro-pyridin-3-yl)-cyclopropanecarbonyl]-pyrrolidine-2-carboxylic acid (1-cyano-cyclopropyl)-amide; Compound with Formic Acid], the IC50 on Cat L is 26.3 nM; at Cathepsin S, 0.07 nM.
For `CC(C)N1CCN(c2ccc(S(=O)(=O)[C@@H]3C[C@@H](C(=O)NC4(C#N)CC4)N(C(=O)C4(c5ccc(Cl)nc5)CC4)C3)c(Cl)c2)CC1` [Example 370, (2S,4R)-4-[2-Chloro-4-(4-isopropyl-piperazin-1-yl)-benzenesulfonyl]-1-[1-(6-chloro-pyridin-3-yl)-cyclopropanecarbonyl]-pyrrolidine-2-carboxylic acid (1-cyano-cyclopropyl)-amide; Compound with Formic Acid], in that order: 21.7 nM and 0.07 nM.
With `CC(C)(C)N1CCN(c2ccc(S(=O)(=O)[C@@H]3C[C@@H](C(=O)NC4(C#N)CC4)N(C(=O)C4(c5ccc(Cl)nc5)CC4)C3)c(Cl)c2)CC1` [Example 371, (2S,4R)-4-[4-(4-tert-Butyl-piperazin-1-yl)-2-chloro-benzenesulfonyl]-1-[1-(6-chloro-pyridin-3-yl)-cyclopropanecarbonyl]-pyrrolidine-2-carboxylic acid (1-cyano-cyclopropyl)-amide; Compound with Formic Acid], the IC50 at Cat L was 26.3 nM; at Cathepsin S it was 0.08 nM.
For `COCCN1CCN(c2ccc(S(=O)(=O)[C@@H]3C[C@@H](C(=O)NC4(C#N)CC4)N(C(=O)C4(c5ccc(Cl)nc5)CC4)C3)c(Cl)c2)CC1` [Example 372, (2S,4R)-4-{2-Chloro-4-[4-(2-methoxy-ethyl)-piperazin-1-yl]-benzenesulfonyl}-1-[1-(6-chloro-pyridin-3-yl)-cyclopropanecarbonyl]-pyrrolidine-2-carboxylic acid (1-cyano-cyclopropyl)-amide; Compound with Formic Acid], in that order: 44.3 nM and 0.08 nM.

The values are drawn from patent US8163793B2, “Proline derivatives” (Hoffman-La Roche Inc., priority 2009, dated 2012).
